Laboratory results: ChEMBL document CHEMBL1201862, “PubChem BioAssay data set” (2004)
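The compound was tested at five concentrations on cells cultured in 96-well plates, with a 48-hour exposure period. At the GI50, growth is halved.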 Active and inactive are the calls of the source. No stated cut-off is given here; in the data, active = GI50 up to about 1.1 µM and inactive = higher.

Tests used:
Assay in all cases: NCI tumour cell line growth inhibition, 48 h
786-0 = test system: 786-0
A498 = test system: A498
A549 = test system: A549
ACHN = test system: ACHN
CAKI-1 = test system: CAKI-1
CCRF-CEM = test system: CCRF-CEM
COLO 205 = test system: COLO 205
DLD-1 = test system: DLD-1
DMS-114 = test system: DMS-114
EKVX = test system: EKVX
HCC 2998 = test system: HCC 2998
HCT-116 = test system: HCT-116
HCT-15 = test system: HCT-15
HOP-18 = test system: HOP-18
HOP-62 = test system: HOP-62
HOP-92 = test system: HOP-92
HT-29 = test system: HT-29
IGROV-1 = test system: IGROV-1
K562 = test system: K562
KM12 = test system: KM12
LOX IMVI = test system: LOX IMVI
LXFL 529 = test system: LXFL 529
M19-MEL = test system: M19-MEL
MOLT-4 = test system: MOLT-4
Malme-3M = test system: Malme-3M
NCI-H226 = test system: NCI-H226
NCI-H23 = test system: NCI-H23
NCI-H460 = test system: NCI-H460
NCI-H522 = test system: NCI-H522
OVCAR-3 = test system: OVCAR-3
OVCAR-4 = test system: OVCAR-4
OVCAR-5 = test system: OVCAR-5
OVCAR-8 = test system: OVCAR-8
RPMI-8226 = test system: RPMI-8226
RXF 393 = test system: RXF 393
SF-268 = test system: SF-268
SF-295 = test system: SF-295
SF-539 = test system: SF-539
SK-MEL-28 = test system: SK-MEL-28
SK-MEL-2 = test system: SK-MEL-2
SK-MEL-5 = test system: SK-MEL-5
SK-OV-3 = test system: SK-OV-3
SN12C = test system: SN12C
SNB-19 = test system: SNB-19
SNB-78 = test system: SNB-78
SR = test system: SR
SW-620 = test system: SW-620
U-251 = test system: U-251
UACC-257 = test system: UACC-257
UACC-62 = test system: UACC-62
UO-31 = test system: UO-31

In the case of `COc1ccccc1/C=N/N=C(\N)NO`, the GI50 (786-0) is reported as 23 µM (inactive), the GI50 (A498) is reported as 33.5 µM (inactive) and the GI50 (A549) is reported as 4.76 µM (inactive). For the same compound, the GI50 (ACHN) was 8.22 µM (inactive), the GI50 (CAKI-1) was 7.28 µM (inactive) and the GI50 (CCRF-CEM) was 16.7 µM (inactive). The GI50 (COLO 205) was 18.9 µM (inactive), the GI50 (DLD-1) was 23.8 µM (inactive) and the GI50 (DMS-114) was 5.78 µM (inactive). For the same compound, the GI50 (EKVX) was 18.9 µM (inactive), the GI50 (HCC 2998) was 4.68 µM (inactive) and the GI50 (HCT-116) was 25.6 µM (inactive). The GI50 (HCT-15) was 6.32 µM, the GI50 (HOP-18) was 48.9 µM (inactive) and the GI50 (HOP-62) was 6 µM (inactive). The GI50 (HOP-92) was 11 µM (inactive), the GI50 (HT-29) was 18.6 µM (inactive) and the GI50 (IGROV-1) was 96.4 µM (inactive). The GI50 (K562) was 3.65 µM (inactive), the GI50 (KM12) was 12.7 µM (inactive) and the GI50 (LOX IMVI) was 4.47 µM (inactive). For the same compound, the GI50 (LXFL 529) was 3.3 µM (inactive), the GI50 (M19-MEL) was 19.8 µM (inactive) and the GI50 (MOLT-4) was 12.6 µM (inactive). The GI50 (Malme-3M) was 30 µM (inactive), the GI50 (NCI-H226) was 28.4 µM (inactive) and the GI50 (NCI-H23) was 45.2 µM (inactive). The GI50 (NCI-H460) was 4.14 µM (inactive), the GI50 (NCI-H522) was 18.7 µM (inactive) and the GI50 (OVCAR-3) was 45.1 µM (inactive). For the same compound, the GI50 (OVCAR-4) was 38.4 µM (inactive), the GI50 (OVCAR-5) was 4.58 µM (inactive) and the GI50 (OVCAR-8) was > 10 µM (inactive). For the same compound, the GI50 (RPMI-8226) was 29.2 µM (inactive), the GI50 (RXF 393) was 28 µM (inactive) and the GI50 (SF-268) was 20.5 µM (inactive). The GI50 (SF-295) was 3.09 µM (inactive), the GI50 (SF-539) was 3.03 µM (inactive) and the GI50 (SK-MEL-28) was 21.3 µM (inactive). For the same compound, the GI50 (SK-MEL-2) was 23.8 µM (inactive), the GI50 (SK-MEL-5) was 2.77 µM (inactive) and the GI50 (SK-OV-3) was 71.9 µM (inactive). For the same compound, the GI50 (SN12C) was 30.2 µM (inactive), the GI50 (SNB-19) was > 100 µM (inactive) and the GI50 (SNB-78) was > 100 µM (inactive). The GI50 (SR) was 31.8 µM (inactive), the GI50 (SW-620) was 21.3 µM (inactive) and the GI50 (U-251) was 48.3 µM (inactive). The GI50 (UACC-257) was 29.1 µM (inactive), the GI50 (UACC-62) was 4.21 µM (inactive) and the GI50 (UO-31) was 7.18 µM (inactive).
